{
  "source": "paper PMC6090053",
  "about": "“Substrate Specificity of Acyltransferase Domains for Efficient Transfer of Acyl Groups” (Frontiers in Microbiology, 2018)",
  "key": {"[1]": {"molecular_target": "T1, AT5monAIV of monensin PKS (Streptomyces virginiae, UniProt Q846X3)", "T1 construct": "gene monAIV; excised AT domain of module 5, synthetic gene, E. coli BL21(DE3), Ni-NTA", "T1 sequence (Q846X3 entry or part of it)": "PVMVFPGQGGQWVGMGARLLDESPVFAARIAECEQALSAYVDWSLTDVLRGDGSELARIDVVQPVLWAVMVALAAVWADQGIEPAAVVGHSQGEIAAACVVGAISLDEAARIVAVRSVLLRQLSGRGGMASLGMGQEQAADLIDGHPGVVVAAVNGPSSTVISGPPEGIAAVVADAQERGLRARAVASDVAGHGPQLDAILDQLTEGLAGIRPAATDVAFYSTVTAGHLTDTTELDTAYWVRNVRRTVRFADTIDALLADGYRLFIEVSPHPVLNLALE", "test": "trans-acylation of holo-ACP10FkbA, HPLC-MS", "format": "biochemical", "details": "16 uM acyl-CoA, 16 uM holo-ACP10FkbA, 1.6 uM AT, pH 8.0, 25 C, 2 h", "from_the_text": "trans-acylation of holo-ACP10FkbA, HPLC-MS on AT5monAIV of monensin PKS"}, "[2]": {"molecular_target": "T1, AT5monAIV of monensin PKS", "test": "self-acylation, HPLC-MS of intact protein", "format": "biochemical", "details": "200 uM acyl-CoA, 20 uM AT, pH 8.0, 25 C, 1 h; covalent acyl-enzyme", "from_the_text": "(§1) self-acylation, HPLC-MS of intact protein on AT5monAIV of monensin PKS"}, "AT4FkbB of FK520 PKS [3]": {"molecular_target": "T2, AT4FkbB of FK520 PKS (Streptomyces hygroscopicus, UniProt Q9KIE0)", "T2 construct": "gene fkbB; excised AT domain of module 4 of FkbB, synthetic gene, E. coli BL21(DE3), Ni-NTA", "T2 sequence (Q9KIE0 entry or part of it)": "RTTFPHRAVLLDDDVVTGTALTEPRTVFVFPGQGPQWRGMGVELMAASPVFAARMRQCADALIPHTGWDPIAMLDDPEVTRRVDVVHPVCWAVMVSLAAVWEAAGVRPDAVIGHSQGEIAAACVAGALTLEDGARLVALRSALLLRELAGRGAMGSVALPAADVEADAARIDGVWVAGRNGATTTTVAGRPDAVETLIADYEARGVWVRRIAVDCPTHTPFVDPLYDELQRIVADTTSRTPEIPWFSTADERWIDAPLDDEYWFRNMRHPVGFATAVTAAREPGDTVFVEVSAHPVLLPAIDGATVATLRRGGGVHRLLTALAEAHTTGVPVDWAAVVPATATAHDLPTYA", "test": "self-acylation, HPLC-MS of intact protein", "format": "biochemical", "details": "200 uM acyl-CoA, 20 uM AT, pH 8.0, 25 C, 1 h; covalent acyl-enzyme", "from_the_text": "(§2) self-acylation, HPLC-MS of intact protein on AT4FkbB of FK520 PKS"}, "AT4FkbB of FK520 PKS [4]": {"molecular_target": "T2, AT4FkbB of FK520 PKS", "test": "self-acylation, HPLC-MS of intact protein", "format": "biochemical", "details": "200 uM acyl-CoA, 20 uM AT, pH 8.0, 25 C, 1 h; covalent acyl-enzyme", "from_the_text": "as §2", "remark": "listed apart in the source"}, "[5]": {"molecular_target": "T3, AT3lsd12 of lasalocid PKS (Streptomyces lasalocidi, UniProt B6ZK65)", "T3 construct": "gene lsd12; excised AT domain of module 3, synthetic gene, E. coli BL21(DE3), Ni-NTA", "T3 sequence (B6ZK65 entry or part of it)": "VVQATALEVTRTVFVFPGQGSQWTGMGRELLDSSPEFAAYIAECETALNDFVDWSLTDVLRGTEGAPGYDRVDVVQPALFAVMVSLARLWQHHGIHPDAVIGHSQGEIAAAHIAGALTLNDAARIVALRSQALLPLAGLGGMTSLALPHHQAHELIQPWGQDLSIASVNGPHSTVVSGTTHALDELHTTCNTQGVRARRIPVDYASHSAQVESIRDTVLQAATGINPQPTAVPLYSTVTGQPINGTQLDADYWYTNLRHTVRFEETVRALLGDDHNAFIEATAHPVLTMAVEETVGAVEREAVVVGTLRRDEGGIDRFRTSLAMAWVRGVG", "test": "self-acylation, HPLC-MS of intact protein", "format": "biochemical", "details": "200 uM acyl-CoA, 20 uM AT, pH 8.0, 25 C, 1 h; covalent acyl-enzyme", "from_the_text": "(§3) self-acylation, HPLC-MS of intact protein on AT3lsd12 of lasalocid PKS"}, "[6]": {"molecular_target": "T3, AT3lsd12 of lasalocid PKS", "test": "self-acylation, HPLC-MS of intact protein", "format": "biochemical", "details": "200 uM acyl-CoA, 20 uM AT, pH 8.0, 25 C, 1 h; covalent acyl-enzyme", "from_the_text": "as §3", "remark": "listed apart in the source"}, "AT4FkbB of FK520 PKS [7]": {"molecular_target": "T2, AT4FkbB of FK520 PKS", "test": "self-acylation, HPLC-MS of intact protein", "format": "biochemical", "details": "200 uM acyl-CoA, 20 uM AT, pH 8.0, 25 C, 1 h; covalent acyl-enzyme", "from_the_text": "as §2", "remark": "listed apart in the source"}, "AT4FkbB of FK506 PKS [8]": {"molecular_target": "T4, AT4FkbB of FK506 PKS (Streptomyces tsukubensis, UniProt W8RMH0)", "T4 construct": "gene fkbB; excised AT domain of module 4 of FkbB, E. coli BL21(DE3), Ni-NTA", "T4 sequence (W8RMH0 entry or part of it)": "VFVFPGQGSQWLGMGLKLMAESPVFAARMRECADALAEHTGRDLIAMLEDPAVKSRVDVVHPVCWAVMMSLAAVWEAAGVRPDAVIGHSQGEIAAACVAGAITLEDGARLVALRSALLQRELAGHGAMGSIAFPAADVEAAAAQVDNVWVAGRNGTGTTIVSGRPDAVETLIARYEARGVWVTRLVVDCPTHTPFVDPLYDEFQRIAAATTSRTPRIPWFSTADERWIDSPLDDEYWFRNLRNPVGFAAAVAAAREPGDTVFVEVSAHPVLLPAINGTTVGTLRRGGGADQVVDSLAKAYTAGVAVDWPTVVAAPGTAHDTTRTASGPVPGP", "test": "self-acylation, HPLC-MS of intact protein", "format": "biochemical", "details": "200 uM acyl-CoA, 20 uM AT, pH 8.0, 25 C, 1 h; covalent acyl-enzyme at Ser89", "from_the_text": "(§4) self-acylation, HPLC-MS of intact protein on AT4FkbB of FK506 PKS"}, "AT4FkbB of FK506 PKS [9]": {"molecular_target": "T5, AT4FkbB of FK506 PKS (Streptomyces tsukubensis, UniProt W8RMH0, L6753I/V6754D/V6755T)", "T5 construct": "gene fkbB; excised AT domain of module 4 of FkbB, E. coli BL21(DE3), Ni-NTA", "T5 sequence (W8RMH0 entry or part of it L6753I/V6754D/V6755T)": "as the sequence (W8RMH0 entry or part of it) above, with L185I, V186D, V187T counted along it", "test": "self-acylation, HPLC-MS of intact protein", "format": "biochemical", "details": "200 uM acyl-CoA, 20 uM AT, pH 8.0, 25 C, 1 h; covalent acyl-enzyme", "from_the_text": "as §4"}, "AT4FkbB of FK506 PKS [10]": {"molecular_target": "T6, AT4FkbB of FK506 PKS (Streptomyces tsukubensis, UniProt W8RMH0, Q6687A)", "T6 construct": "gene fkbB; excised AT domain of module 4 of FkbB, E. coli BL21(DE3), Ni-NTA", "T6 sequence (W8RMH0 entry or part of it Q6687A)": "as the sequence (W8RMH0 entry or part of it) above, with Q119A counted along it", "test": "self-acylation, HPLC-MS of intact protein", "format": "biochemical", "details": "200 uM acyl-CoA, 20 uM AT, pH 8.0, 25 C, 1 h; covalent acyl-enzyme", "from_the_text": "as §4"}, "AT4FkbB of FK506 PKS [11]": {"molecular_target": "T7, AT4FkbB of FK506 PKS (Streptomyces tsukubensis, UniProt W8RMH0, Q6687A/L6753I/V6754D/V6755T/F6771L)", "T7 construct": "gene fkbB; excised AT domain of module 4 of FkbB, E. coli BL21(DE3), Ni-NTA", "T7 sequence (W8RMH0 entry or part of it Q6687A/L6753I/V6754D/V6755T/F6771L)": "as the sequence (W8RMH0 entry or part of it) above, with Q119A, L185I, V186D, V187T, F203L counted along it", "test": "self-acylation, HPLC-MS of intact protein", "format": "biochemical", "details": "200 uM acyl-CoA, 20 uM AT, pH 8.0, 25 C, 1 h; covalent acyl-enzyme", "from_the_text": "as §4"}, "AT4FkbB of FK506 PKS [12]": {"molecular_target": "T8, AT4FkbB of FK506 PKS (Streptomyces tsukubensis, UniProt W8RMH0, V6755K)", "T8 construct": "gene fkbB; excised AT domain of module 4 of FkbB, E. coli BL21(DE3), Ni-NTA", "T8 sequence (W8RMH0 entry or part of it V6755K)": "as the sequence (W8RMH0 entry or part of it) above, with V187K counted along it", "test": "self-acylation, HPLC-MS of intact protein", "format": "biochemical", "details": "200 uM acyl-CoA, 20 uM AT, pH 8.0, 25 C, 1 h; covalent acyl-enzyme", "from_the_text": "as §4"}, "[13]": {"test": "self-acylation, HPLC-MS of intact protein", "format": "biochemical, Streptomyces virginiae", "details": "200 uM acyl-CoA, 20 uM AT, pH 8.0, 25 C, 1 h; covalent acyl-enzyme", "from_the_text": "as §1"}},
  "data": [
    {"compound": "CC(C(=O)O)C(=O)SCCNC(=O)CCNC(=O)[C@H](O)C(C)(C)COP(=O)(O)OP(=O)(O)OC[C@H]1O[C@@H](n2cnc3c(N)ncnc32)[C@H](O)[C@@H]1OP(=O)(O)O", "note": "(some centres unmarked) [MM-CoA]", "values": [
      {"measurement": "Trans-acylation reaction (%) / MM-ACP10FkbA", "setting": "[1]", "result": 51.2, "unit": "%"}
    ]},
    {"compound": "C=CCC(C(=O)O)C(=O)SCCNC(=O)CCNC(=O)[C@H](O)C(C)(C)COP(=O)(O)OP(=O)(O)OC[C@H]1O[C@@H](n2cnc3c(N)ncnc32)[C@H](O)[C@@H]1OP(=O)(O)O", "note": "(some centres unmarked) [allmal-CoA]", "values": [
      {"measurement": "Self-acylation reaction (%) / Allmal-AT4FkbB^∗", "setting": "[2]", "result": 49.8, "unit": "%"},
      {"measurement": "Self-acylation reaction (%) / Allmal-AT4FkbB^∗", "setting": "AT4FkbB of FK520 PKS [3]", "result": 31.5, "unit": "%"},
      {"measurement": "Self-acylation reaction (%) / Allmal-AT4FkbB^∗", "setting": "AT4FkbB of FK520 PKS [4]", "result": 61.3, "unit": "%"},
      {"measurement": "Self-acylation reaction (%) / Allmal-AT4FkbB^∗", "setting": "[5]", "result": 41.4, "unit": "%"},
      {"measurement": "Self-acylation reaction (%) / Allmal-AT4FkbB^∗", "setting": "[6]", "result": 17.8, "unit": "%"},
      {"measurement": "Self-acylation reaction (%) / Allmal-AT4FkbB^∗", "setting": "AT4FkbB of FK520 PKS [7]", "result": 58.2, "unit": "%"},
      {"measurement": "Self-acylation reaction (%) / Allmal-AT4^∗FkbB", "setting": "AT4FkbB of FK506 PKS [8]", "result": 69.7, "unit": "%"},
      {"measurement": "Self-acylation reaction (%) / Allmal-AT4^∗FkbB", "setting": "AT4FkbB of FK506 PKS [9]", "result": 28.0, "unit": "%"},
      {"measurement": "Self-acylation reaction (%) / Allmal-AT4^∗FkbB", "setting": "AT4FkbB of FK506 PKS [10]", "result": 29.2, "unit": "%"},
      {"measurement": "Self-acylation reaction (%) / Allmal-AT4^∗FkbB", "setting": "AT4FkbB of FK506 PKS [11]", "result": 27.1, "unit": "%"},
      {"measurement": "Self-acylation reaction (%) / Allmal-AT4^∗FkbB", "setting": "AT4FkbB of FK506 PKS [12]", "result": 78.8, "unit": "%"}
    ]},
    {"compound": "CCC(C(=O)O)C(=O)SCCNC(=O)CCNC(=O)[C@H](O)C(C)(C)COP(=O)(O)OP(=O)(O)OC[C@H]1O[C@@H](n2cnc3c(N)ncnc32)[C@H](O)[C@@H]1OP(=O)(O)O", "note": "(some centres unmarked) [ethmal-CoA]", "values": [
      {"measurement": "Self-acylation reaction (%) / Ethmal-AT4FkbB^∗", "setting": "[13]", "result": 63.7, "unit": "%"},
      {"measurement": "Self-acylation reaction (%) / Ethmal-AT4FkbB^∗", "setting": "AT4FkbB of FK520 PKS [3]", "result": 65.1, "unit": "%"},
      {"measurement": "Self-acylation reaction (%) / Ethmal-AT4FkbB^∗", "setting": "[6]", "result": 78.1, "unit": "%"},
      {"measurement": "Self-acylation reaction (%) / Ethmal-AT4^∗FkbB", "setting": "AT4FkbB of FK506 PKS [8]", "result": 62.0, "unit": "%"},
      {"measurement": "Self-acylation reaction (%) / Ethmal-AT4^∗FkbB", "setting": "AT4FkbB of FK506 PKS [12]", "result": 32.3, "unit": "%"}
    ]}
  ]
}
